Literature values as cited in patent US20230414620A1, “TOPICAL RUXOLITINIB FOR TREATING LICHEN PLANUS” (Incyte Corporation, priority 2020, published 2023).

Experiments:
[1] = system: steroid refractory graft versus host disease (GVHD); conditions: systemic JAK1, 2 inhibition
[2] = system: refractory dermatomyositis (DM); conditions: case report

N#CC[C@H](C1CCCC1)n1cc(-c2ncnc3[nH]ccc23)cn1 [ruxolitinib, (R)-3-(4-(7H-pyrrolo[2,3-d]pyrimidin-4-yl)-1H-pyrazol-1-yl)-3-cyclopentylpropanenitrile]
efficacy in steroid refractory GVHD [1]: highly effective
response in refractory dermatomyositis [2]: exceptional responder
